Literature values as cited in patent US20250127711A1, “COMPOSITION AND METHOD FOR TREATING FUNGAL SKIN CONDITIONS AND INFLAMMATION” (CMPD Licensing, LLC, priority 2016, published 2025).

What was measured:
[1] = test system: mineralocorticoid activity

solubility in ethanol (ethanol) | solubility in water (water) | SMILES | glucocorticoid activity (glucocorticoid activity) | mineralocorticoid activity [1]
– | – | C[C@H]1C[C@H]2[C@@H]3CCC4=CC(=O)C=C[C@]4(C)[C@@]3(F)[C@@H](O)C[C@]2(C)[C@@]1(O)C(=O)CCl [Clobetasol] | high degree | slight degree
slightly soluble | practically insoluble | CC(=O)OCC(=O)[C@@]12OC(C)(C)O[C@@H]1C[C@H]1[C@@H]3C[C@H](F)C4=CC(=O)C=C[C@]4(C)[C@@]3(F)[C@@H](O)C[C@@]12C [Fluocinonide] | – | –
